Experiments:
[1] = target: T1, Protein deacetylase HDAC6 (Homo sapiens, UniProt Q9UBN7); test: Inhibition of HDAC6 (unknown origin)
T1 sequence (Q9UBN7 whole entry): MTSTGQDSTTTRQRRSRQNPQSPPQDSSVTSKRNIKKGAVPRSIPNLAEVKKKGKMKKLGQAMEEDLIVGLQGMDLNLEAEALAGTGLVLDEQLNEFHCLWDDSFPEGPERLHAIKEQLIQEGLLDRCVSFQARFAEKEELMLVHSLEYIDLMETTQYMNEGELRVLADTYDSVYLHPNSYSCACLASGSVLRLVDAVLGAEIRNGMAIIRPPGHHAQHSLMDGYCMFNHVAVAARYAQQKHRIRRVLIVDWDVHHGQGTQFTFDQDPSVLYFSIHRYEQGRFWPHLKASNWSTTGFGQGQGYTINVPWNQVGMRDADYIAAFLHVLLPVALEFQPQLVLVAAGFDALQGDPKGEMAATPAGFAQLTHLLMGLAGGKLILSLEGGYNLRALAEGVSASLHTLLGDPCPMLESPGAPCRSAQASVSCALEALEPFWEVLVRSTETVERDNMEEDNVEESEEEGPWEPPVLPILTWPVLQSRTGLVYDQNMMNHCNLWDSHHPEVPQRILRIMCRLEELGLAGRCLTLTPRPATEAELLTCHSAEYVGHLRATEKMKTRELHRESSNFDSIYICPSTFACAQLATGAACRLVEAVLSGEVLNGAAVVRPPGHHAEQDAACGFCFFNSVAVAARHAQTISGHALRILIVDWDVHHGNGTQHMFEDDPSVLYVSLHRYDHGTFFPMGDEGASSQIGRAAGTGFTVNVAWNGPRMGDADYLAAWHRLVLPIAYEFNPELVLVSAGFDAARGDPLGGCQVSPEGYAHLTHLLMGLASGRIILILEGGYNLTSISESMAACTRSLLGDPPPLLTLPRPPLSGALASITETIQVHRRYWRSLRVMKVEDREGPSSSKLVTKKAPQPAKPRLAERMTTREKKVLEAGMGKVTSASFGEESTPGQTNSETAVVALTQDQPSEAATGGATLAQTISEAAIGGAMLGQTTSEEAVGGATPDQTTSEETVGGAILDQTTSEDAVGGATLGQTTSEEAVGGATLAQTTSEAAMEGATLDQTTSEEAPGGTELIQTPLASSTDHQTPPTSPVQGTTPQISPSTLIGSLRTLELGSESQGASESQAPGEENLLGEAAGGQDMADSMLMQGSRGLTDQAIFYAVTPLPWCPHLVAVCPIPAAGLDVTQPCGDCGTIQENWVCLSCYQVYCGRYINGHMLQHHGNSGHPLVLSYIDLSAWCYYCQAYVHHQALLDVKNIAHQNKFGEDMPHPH

[2] = target: T2, Protein deacetylase HDAC6 (Homo sapiens) (UniProt Q9UBN7); conditions: dose 100.0 nM
T2 sequence (whole entry): T1 sequence (Q9UBN7 whole entry)
Description: Inhibition of HDAC6 (unknown origin) at 100 nM

[3] = target: Phosphatidylinositol 4,5-bisphosphate 3-kinase catalytic subunit alpha isoform (Homo sapiens, UniProt P42336); test: Inhibition of PI3Kalpha (unknown origin) by mobility shift assay
[4] = tested on: HL-60; test: cells; type: functional, cell-based; conditions: Homo sapiens, HL-60, 72 h
Description: Antiproliferative activity against human HL-60 cells assessed as inhibition of cell proliferation incubated for 72 hrs by CCK8 assay

[5] = tested on: K562; test: cells; type: functional, cell-based; conditions: Homo sapiens, K562, 72 h
Description: Antiproliferative activity against human K562 cells assessed as inhibition of cell proliferation incubated for 72 hrs by CCK8 assay

[6] = tested on: MV4-11; test: cells; type: functional, cell-based; conditions: Homo sapiens, MV4-11, 72 h
Description: Antiproliferative activity against human MV4-11 cells assessed as inhibition of cell proliferation incubated for 72 hrs by CCK8 assay

[7] = tested on: MV4-11; test: Induction of apoptosis in human MV4-11 cells assessed as viable cells at 1 uM incubated for 48 hrs by Annexin V-FITC/PI staining based flow cytometry (reference value: 96.5%); type: functional; conditions: read-out: Activity
[8] = tested on: MV4-11; test: Induction of apoptosis in human MV4-11 cells assessed as late apoptotic cells at 1 uM incubated for 48 hrs by Annexin V-FITC/PI staining based flow cytometry (reference value: 2.04%); type: functional
[9] = tested on: MV4-11; test: Induction of apoptosis in human MV4-11 cells assessed as necrotic cells at 1 uM incubated for 48 hrs by Annexin V-FITC/PI staining based flow cytometry (reference value: 0.51%); type: functional
[10] = tested on: MV4-11; test: Induction of cell cycle arrest in human MV4-11 cells assessed as accumulation of cells at S phase at 1 uM incubated for 48 hrs by […]PI staining based flow cytometry (reference value: 45.5%); type: functional
[11] = tested on: MV4-11; test: Induction of cell cycle arrest in human MV4-11 cells assessed as accumulation of cells at G0/G1 phase at 1 uM incubated for 48 hrs by […]PI staining based flow cytometry (reference value: 33.1%); type: functional
[12] = tested on: MV4-11; test: Induction of cell cycle arrest in human MV4-11 cells assessed as accumulation of cells at G2/M phase at 1 uM incubated for 48 hrs by […]PI staining based flow cytometry (reference value: 11.5%); type: functional
[13] = tested on: MV4-11; test: Induction of apoptosis in human MV4-11 cells assessed as early apoptotic cells at 1 uM incubated for 48 hrs by Annexin V-FITC/PI staining based flow cytometry (reference value: 0.95%); type: functional

Phosphatidylinositol 4,5-bisphosphate 3-kinase catalytic subunit alpha isoform, sequence (P42336 whole entry, canonical isoform): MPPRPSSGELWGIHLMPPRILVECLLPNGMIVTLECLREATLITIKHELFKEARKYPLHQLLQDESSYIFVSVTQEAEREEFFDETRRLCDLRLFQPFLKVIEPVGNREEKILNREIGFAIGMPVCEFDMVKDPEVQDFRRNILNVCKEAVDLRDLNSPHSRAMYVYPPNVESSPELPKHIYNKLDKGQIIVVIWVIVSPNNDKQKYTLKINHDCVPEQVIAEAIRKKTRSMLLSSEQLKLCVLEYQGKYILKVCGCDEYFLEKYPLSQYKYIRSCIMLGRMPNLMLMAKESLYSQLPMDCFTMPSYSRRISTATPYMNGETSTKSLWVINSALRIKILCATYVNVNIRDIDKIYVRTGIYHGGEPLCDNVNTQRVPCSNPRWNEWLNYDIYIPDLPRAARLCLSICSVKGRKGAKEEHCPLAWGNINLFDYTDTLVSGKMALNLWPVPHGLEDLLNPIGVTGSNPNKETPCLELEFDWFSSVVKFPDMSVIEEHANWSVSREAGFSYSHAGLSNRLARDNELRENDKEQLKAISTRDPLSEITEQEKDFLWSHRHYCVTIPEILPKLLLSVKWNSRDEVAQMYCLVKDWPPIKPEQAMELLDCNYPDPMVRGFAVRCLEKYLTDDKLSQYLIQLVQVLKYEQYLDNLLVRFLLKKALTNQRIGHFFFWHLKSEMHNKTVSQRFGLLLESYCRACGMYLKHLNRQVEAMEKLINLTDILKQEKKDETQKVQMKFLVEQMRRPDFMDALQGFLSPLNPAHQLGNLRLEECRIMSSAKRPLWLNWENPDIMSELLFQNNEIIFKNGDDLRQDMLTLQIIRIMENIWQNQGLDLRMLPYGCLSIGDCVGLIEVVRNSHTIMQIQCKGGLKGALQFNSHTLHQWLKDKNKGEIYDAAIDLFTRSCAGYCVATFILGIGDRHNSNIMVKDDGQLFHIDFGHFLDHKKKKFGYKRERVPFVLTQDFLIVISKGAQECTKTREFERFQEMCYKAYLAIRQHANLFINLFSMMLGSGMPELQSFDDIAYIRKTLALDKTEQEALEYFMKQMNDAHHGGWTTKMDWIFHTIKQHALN

Q: What does the source list for `Nc1ncc(-c2cc(N3CCOCC3)c(=O)n(Cc3ccc(C(=O)NO)cc3)n2)cn1`?
A: IC50 [1]: 0.013 µM; inhibition [2]: 94%

Q: What does the source list for `O=C(NO)c1ccc(Cn2cc(-c3ccc(O)cc3)nc(N3CCOCC3)c2=O)cc1`?
A: IC50 [1]: 0.014 µM; inhibition [2]: 94%

Q: How did the IC50 [3] turn out when `Nc1ncc(-c2cn(CCCCCC(=O)NO)c(=O)c(N3CCOCC3)n2)cn1` was run?
A: 0.157 µM

Q: And the IC50 [4]?
A: 12.7 µM

Q: What about the IC50 [5] of the same compound?
A: > 50 µM

Q: And the IC50 [1]?
A: 0.109 µM

Q: And the inhibition [2]?
A: 45%

Q: What about the IC50 [6] of the same compound?
A: 19.7 µM

Q: With `O=C(CCCCCCC(=O)Nc1ccccc1)NO` [VORINOSTAT] as the compound, how does the viability at 1 µM [7] read?
A: 76.1%

Q: What about the Activity [8] of the same compound?
A: 12.9%

Q: And the Activity [9]?
A: 0.93%

Q: What about the Activity [10] of the same compound?
A: 5.62%

Q: And the Activity [11]?
A: 43.2%

Q: And the Activity [12]?
A: 28.6%

Q: What about the Activity [13] of the same compound?
A: 9.99%

Q: Which results are given for `O=C(NO)c1ccc(Cn2cc(-c3cccc(O)c3)nc(N3CCOCC3)c2=O)cc1`?
A: IC50 [3]: 0.467 µM; IC50 [4]: 1.14 µM; IC50 [5]: 3.84 µM; IC50 [1]: 0.023 µM; inhibition [2]: 94%; IC50 [6]: 0.09 µM

Q: How did the IC50 [1] turn out when `Nc1ccc(-c2cn(Cc3ccc(C(=O)NO)cc3)c(=O)c(N3CCOCC3)n2)cc1` was run?
A: 0.013 µM

Q: And the inhibition [2]?
A: 101%

Q: For `Nc1ncc(-c2cc(N3CCOCC3)c(=O)n(Cc3ccc(C(=O)NO)cc3)c2)cn1`, which IC50 [1] is on record?
A: 0.02 µM

Q: And the inhibition [2]?
A: 95%

Q: For `COC1CCN(c2nc(-c3cnc(N)nc3)cn(Cc3ccc(C(=O)NO)cc3)c2=O)CC1`, which IC50 [1] is on record?
A: 0.0074 µM

Q: Which IC50 [1] does the source give for `Cc1noc(C)c1-c1cn(Cc2ccc(C(=O)NO)cc2)c(=O)c(N2CCOCC2)n1` here?
A: 0.032 µM

Q: `Nc1ncc(-c2cn(Cc3ccc(C(=O)NO)cc3)c(=O)c(Nc3ccccc3)n2)cn1` was tested. Which IC50 [1] did it give?
A: 0.0069 µM

Q: How did the IC50 [1] turn out when `O=C(NO)c1ccc(Cn2cc(-c3cccnc3)nc(N3CCOCC3)c2=O)cc1` was run?
A: 0.015 µM

Q: And the inhibition [2]?
A: 92%

Q: `CCCn1cc(-c2cnc(N)nc2)nc(N2CCOCC2)c1=O` was tested. Which IC50 [3] did it give?
A: 0.025 µM

Q: Which IC50 [1] does the source give for `CN1CCN(c2nc(-c3cnc(N)nc3)cn(Cc3ccc(C(=O)NO)cc3)c2=O)CC1` here?
A: 0.0042 µM

Q: With `Nc1cc(C(F)(F)F)c(-c2cc(N3CCOCC3)nc(N3CCOCC3)n2)cn1` [BUPARLISIB] as the compound, how does the viability at 1 µM [7] read?
A: 89%

Q: And the IC50 [4]?
A: 1.51 µM

Q: And the Activity [8]?
A: 6.42%

Q: And the Activity [9]?
A: 3.19%

Q: And the Activity [10]?
A: 34.7%

Q: What about the IC50 [5] of the same compound?
A: 0.73 µM

Q: And the Activity [11]?
A: 48.1%

Q: What about the Activity [12] of the same compound?
A: 9.96%

Q: What about the Activity [13] of the same compound?
A: 1.37%

Q: And the IC50 [6]?
A: 0.73 µM

Q: How did the IC50 [3] turn out when `Nc1ncc(-c2cn(CCCCCCCC(=O)NO)c(=O)c(N3CCOCC3)n2)cn1` was run?
A: 0.278 µM

Q: And the IC50 [4]?
A: 9.87 µM

Q: And the IC50 [5]?
A: 4.56 µM

Q: What about the IC50 [1] of the same compound?
A: 0.194 µM

Q: What about the inhibition [2] of the same compound?
A: 27%

Q: What about the IC50 [6] of the same compound?
A: 1.52 µM

Q: How did the IC50 [1] turn out when `O=C(NO)c1ccc(Cn2cc(-c3cn[nH]c3)nc(N3CCOCC3)c2=O)cc1` was run?
A: 0.03 µM

Q: `O=C(NO)c1ccc(Cn2cc(-c3ccc(CO)cc3)nc(N3CCOCC3)c2=O)cc1` was tested. Which IC50 [1] did it give?
A: 0.015 µM

Q: Which IC50 [1] does the source give for `Nc1ccc(-c2cn(Cc3ccc(C(=O)NO)cc3)c(=O)c(N3CCOCC3)n2)cn1` here?
A: 0.012 µM

Q: And the inhibition [2]?
A: 91%

Q: How did the IC50 [3] turn out when `CNc1ncc(-c2cn(Cc3ccc(C(=O)NO)cc3)c(=O)c(N3CCOCC3)n2)cn1` was run?
A: 0.336 µM

Q: What about the IC50 [4] of the same compound?
A: 4.29 µM

Q: What about the IC50 [5] of the same compound?
A: 6.12 µM

Q: And the IC50 [1]?
A: 0.0091 µM

Q: What about the IC50 [6] of the same compound?
A: 1.37 µM

Q: With `Nc1ncc(-c2cn(Cc3ccc(C(=O)NO)cc3)c(=O)c(N3CCCCC3)n2)cn1` as the compound, how does the IC50 [1] read?
A: 0.0042 µM

Q: What does the source list for `O=C(NO)c1ccc(Cn2cc(-c3cccc(CO)c3)nc(N3CCOCC3)c2=O)cc1`?
A: IC50 [4]: 0.58 µM; IC50 [5]: 0.59 µM; IC50 [1]: 0.014 µM; IC50 [6]: 0.07 µM

Q: `O=C(NO)c1ccc(Cn2cc(-c3ccoc3)nc(N3CCOCC3)c2=O)cc1` was tested. Which IC50 [1] did it give?
A: 0.0079 µM

Q: With `Nc1ncc(-c2cn(Cc3cccc(C(=O)NO)c3)c(=O)c(N3CCOCC3)n2)cn1` as the compound, how does the IC50 [1] read?
A: 0.65 µM

Q: How did the IC50 [1] turn out when `Cn1cc(-c2cn(Cc3ccc(C(=O)NO)cc3)c(=O)c(N3CCOCC3)n2)cn1` was run?
A: 0.021 µM

Q: How did the IC50 [3] turn out when `Nc1ncc(-c2cn(CCCCCCC(=O)NO)c(=O)c(N3CCOCC3)n2)cn1` was run?
A: 0.127 µM

Q: And the IC50 [4]?
A: 18.4 µM

Q: What about the IC50 [5] of the same compound?
A: 3.84 µM

Q: What about the IC50 [1] of the same compound?
A: 0.054 µM

Q: What about the inhibition [2] of the same compound?
A: 73%

Q: What about the IC50 [6] of the same compound?
A: 1.98 µM

Q: With `Nc1ncc(-c2cn(Cc3ccc(C(=O)NO)cc3)c(=O)c(N3CCOCC3)n2)cn1` as the compound, how does the IC50 [3] read?
A: 0.197 µM

Q: What about the IC50 [4] of the same compound?
A: 21 µM

Q: What about the IC50 [5] of the same compound?
A: 13.8 µM

Q: And the IC50 [1]?
A: 0.015 µM

Q: And the inhibition [2]?
A: 92%

Q: What about the IC50 [6] of the same compound?
A: 4.85 µM

Q: With `O=C(NO)c1ccc(Cn2cc(-c3cncnc3)nc(N3CCOCC3)c2=O)cc1` as the compound, how does the IC50 [1] read?
A: 0.035 µM

Q: What about the inhibition [2] of the same compound?
A: 69%
